Patent US20230174545A1, “HETEROCYCLIC COMPOUNDS AS BET INHIBITORS” (Nuvation Bio Inc., priority 2020, published 2023)

How the values were obtained:
BRD4-2 = target: T1, BRD4-2 (Homo sapiens, UniProt O60885); assay: Bromodomain and Extraterminal Domain (BET) binding assay (Alpha, Reaction Biology Corp.), BRD4-2; settings: protein 130 nM, ligand histone H4 peptide (1-21) K5/8/12/16Ac-biotin 70 nM
T1 construct: purchased Reaction Biology Corp
Procedure: (§1) The bromodomain binding assays are performed by Reaction Biology Corp., Malvern, Pa., USA (www.reactionbiology.com). The BET binding assays are conducted in 384 well microplates in assay buffer (50 mM HEPES-HCl, pH 7.5, 100 mM NaCl, 1 mg/ml BSA, 0.05% CHAPS, and 0.5% DMSO) with compounds added as DMSO stocks at a single concentration or with 10-point dose response titrations. BET protein or assay buffer are delivered to the appropriate wells of the microplate. Test compound is then delivered by acoustic technology via a Labcyte Echo550 liquid handler. The microplate is centrifuged for 5 min and pre-incubated for 30 min at RT with gentle shaking. The ligand (histone H4 peptide (1-21) K5/8/12/16Ac-biotin) is delivered and the microplate is again centrifuged for 5 min and allowed to incubate for 30 min at RT with gentle shaking. Donor beads are then added in the absence of light and the microplate is centrifuged and gently shaken. After 5 min, acceptor beads are added in the absence of light and the microplate is centrifuged and gently shaken in the dark for 60 min. The microplate is read using a Perkin Elmer EnSpire Alpha plate reader (λ Ex/λ Em=680/520-620 nm). Percent inhibition is calculated relative to positive and negative controls on a per plate basis. For titration experiments, IC50 values are determined by fitting the percent inhibition versus compound concentration. […]

BRD4-1 = target: T2, BRD4-1 (Homo sapiens, UniProt O60885); assay: Bromodomain and Extraterminal Domain (BET) binding assay (Alpha, Reaction Biology Corp.), BRD4-1; settings: protein 20 nM, ligand histone H4 peptide (1-21) K5/8/12/16Ac-biotin 20 nM
T2 construct: purchased Reaction Biology Corp
Procedure: as §1

Row | IC50 (BRD4-2) [nM] | IC50 (BRD4-1) [nM] | SMILES
1 | 0.7 | 2370 | CCNC(=O)c1cc2c(=O)n(C)cc(-c3cc(C(C)(C)O)ccc3Oc3c(C)cc(F)cc3C)c2o1 [Compound 1, N-ethyl-7-(2-(4-fluoro-2,6-dimethylphenoxy)-5-(2-hydroxypropan-2-yl)phenyl)-5-methyl-4-oxo-4,5-dihydrofuro[3,2-c]pyridine-2-carboxamide]
2 | 3 | 4 | CCNC(=O)c1cc2c(=O)n(C)cc(-c3cc(NS(=O)(=O)CC)ccc3Oc3ccc(F)cc3F)c2o1 [Compound 65, 7-(2-(2,4-difluorophenoxy)-5-(ethylsulfonamido)phenyl)-N-ethyl-5-methyl-4-oxo-4,5-dihydrofuro[3,2-c]pyridine-2-carboxamide]
